Like-named read-outs stand apart in the source and are kept apart here.
Tests used:
Format in all cases: cell-based
[1] = tested on: nod genes in Bradyrhizobium japonicum strain USDA76; test: nod gene induction, β-galactosidase assay, strain USDA 76 (GG2); conditions: control 411.8 ± 26.8
Experimental: (§1) Bacteria were grown in yeast extract mannitol (YEM) medium (mannitol 10.0 g, K2HPO4 0.5 g, MgSO4.7H2O 0.2 g, NaCl 0.1 g, and yeast extract 0.4 g dissolved in 1000 mL of dd H2O). In order to ensure the maintenance of the strains, tetracycline was added to the bacterial cultures at a concentration of 20 mg 1^−1. One hundred mL cultures of each strain, in 250 mL flasks, were shaken at 150 rev min^−1 at 30° C. for 3-5 days and then subcultured into 400 mL of fresh medium in 1000 mL flasks. The cultures were incubated until the OD620 reached 0.2-0.3. The cultures were then divided into 5 mL tubes (sterilized).
(§2) Stock solutions of various inducers: genistein, salicylic acid and acetylsalicylic acid made in methanol and linolenic, linoleic, and jasmonic acid and methyl jasmonate were made in ethanol, and an appropriate amount of these inducers was added into the tubes before addition of bacterial culture. In the tubes, the final concentration of all the inducers was maintained as 5, 10, 25, 50 and 100 μM. Tubes were collected after 18 h of incubation and stored at −20° C. until the β-galactosidase activity was measured. Genistein (4′,5,7, trihydroxyisoflavone, purity 98%,), linolenic acid (9,12,15-Octadecatrienoic acid, purity 99%), linoleic acid (cis-9, cis-12-Octadecadienoic acid, purity 99%), jasmonic acid (±Jasmonic acid, C12H18O3) and salicylic acid (2-hydroxybenzoic acid, purity 99.0%) were obtained from Sigma, while acetylsalicylic acid (C9H8O4, 99% purity) was obtained from Acros and methyl jasmonate (95% purity) was obtained from Aldrich Chemical Company, Inc.
(§3) β-galactosidase is an enzyme which hydrolyzes β-D-galactosides. The activity of this enzyme can easily be measured with colorless substrates, which upon hydrolysis produce colored products. O-nitrophenyl-β-galactoside (ONPG) is a colorless compound and is converted to galactose and O-nitrophenol in the presence of β-galactosidase. The O-nitrophenol is yellow and can be measured by its absorption at 420 nm. In the present study, nod gene expression was indirectly measured by β-galactosidase activity following the method of Miller (1972) as modified by Stachel et al, (1985). Briefly, 0.5 mL culture was mixed with 2×Z buffer (Na2HPO4.7H2O, 16.1 g, NaH2PO4.H2O, 5.5 g, KCl 0.75 g, MgSO4.7H2O 0.246 g, β-mercaptoethanol 2.7 g, pH 7.0 dissolved in 500 mL water) and 40 μL toluene and vortexed for 10 seconds. The culture was then incubated in a water bath at 37° C. for 30 minutes and then 0.2 mL of O-nitrophenyl β-D-galactopyranoside (ONPG) was added at a concentration of 4 mg mL^−1. The cultures were incubated again in the water bath until the color of the culture changed. The reaction time was recorded and the reaction was stopped with 1M Na2CO3. After centrifugation at 10,000 rpm for 4 minutes, spectrophotometric reading at OD420 and OD600 were taken and the β-galactosidase activity was measured (β-galactosidase activity=OD420*1000/OD600*T*V, where T is the reaction time and V is the volume of the bacterial culture used for enzyme assay).
(§4) The effect of 0-100 μM concentrations of each of acetylsalicylic acid, salicylic acid, jasmonic acid, methyl jasmonate, and genistein, on induction of nod gene expression in Bradyrhizobium japonicum strains USDA31, USDA76, USDA121, and USDA3, was evaluated in accordance with the β-galactosidase assay of Experiment 1 in Example 1 above.

[2] = tested on: nod genes in Bradyrhizobium japonicum strain USDA3; conditions: for nod gene induction (β-galactosidase activity): USDA3 (GG4), control 362 ± 25; for expression of nod genes (β-galactosidase assay), in words: FIG. 1; for synergistic effect on β-galactosidase activity: simultaneous addition with genistein (5 μM), FIG. 2
Experimental: Bradyrhizobium japonicum strain USDA3, harboring plasmid GG4, was used in the experiment. Plasmid GG4 contains a translational fusion between B. japonicum nod Y open-reading frame and lac Z of Escherichia coli.
as §1, §2, §3
The experiment was designed in a randomized complete block design (RCBD) with three replicates. […] Data are shown from the second experiment. Statistical analysis of the data was done with analysis of variance using the Statistical Analysis System computer package (SAS Institute, 1988). Comparisons among treatment means were made with an ANOVA protected LSD at the 0.05 level of statistical significance.

[3] = tested on: nod genes in Bradyrhizobium japonicum strain USDA121; test: nod gene induction, β-galactosidase assay, strain USDA121 (GG3); conditions: control 476.8 ± 86.6
Experimental: as §1, §2, §3, §4

[4] = tested on: nod genes in Bradyrhizobium japonicum strain USDA31; test: nod gene induction, β-galactosidase assay, strain USDA31 (GG1)
Experimental: as §1, §2, §3, §4

[5] = concentrations from 25 to 100 μM
[6] = 5 μM, control without inducer 522.6 ± 15.9

SMILES | nod gene induction (β-galactosidase activity) ([1]; 5 μM) | nod gene induction (β-galactosidase activity) ([1]; 10 μM) | nod gene induction (β-galactosidase activity) ([1]; 25 μM) | nod gene induction (β-galactosidase activity) ([1]; 50 μM) | nod gene induction (β-galactosidase activity) ([1]; 100 μM) | nod gene induction (β-galactosidase activity) ([2]; 5 μM) | nod gene induction (β-galactosidase activity) ([2]; 10 μM) | nod gene induction (β-galactosidase activity) ([2]; 25 μM) | nod gene induction (β-galactosidase activity) ([2]; 50 μM) | nod gene induction (β-galactosidase activity) ([2]; 100 μM) | nod gene induction (β-galactosidase activity) ([3]; 5 μM) | nod gene induction (β-galactosidase activity) ([3]; 10 μM) | nod gene induction (β-galactosidase activity) ([3]; 25 μM) | nod gene induction (β-galactosidase activity) ([3]; 50 μM) | nod gene induction (β-galactosidase activity) ([3]; 100 μM) | nod gene induction (β-galactosidase activity) [4, 6] | nod gene induction (β-galactosidase activity) ([4]; 10 μM, control 522.6 ± 15.9) | nod gene induction (β-galactosidase activity) ([4]; 25 μM, control 522.6 ± 15.9) | nod gene induction (β-galactosidase activity) ([4]; 50 μM, control 522.6 ± 15.9) | nod gene induction (β-galactosidase activity) ([4]; 100 μM, control 522.6 ± 15.9) | further results
CC/C=C\C[C@H]1C(=O)CC[C@@H]1CC(=O)O [JA, [1R-[1α,2β(Z)]]-3-oxo-2-(pentenyl)cyclopentaneacetic acid] | 393.5 ± 30.5 | 447.9 ± 21 | 420.1 ± 4.6 | 375.1 ± 35.3 | 357.7 ± 9.7 | 368 ± 23 | 362 ± 9 | 3200 ± 230 | 3900 ± 150 | 550 ± 210 | 540.3 ± 79.3 | 473.7 ± 58.3 | 496 ± 49.2 | 412.7 ± 22.9 | 329.5 ± 19.3 | 1653.3 ± 105.2 | 2079 ± 254.9 | 1853.3 ± 314.5 | 1884.3 ± 289.3 | 796 ± 67.3 | expression of nod genes (β-galactosidase assay), in words ([2]; concentrations 10 μM or less): showed no activity; expression of nod genes (β-galactosidase assay), in words [2, 5]: strongly induced the expression of nod genes; synergistic effect on β-galactosidase activity [2]: did not result in any synergistic effect
CC/C=C\CC1C(=O)CCC1CC(=O)OC (stereo not shown) [MeJA, methyl jasmonate] | 435.4 ± 39 | 418.4 ± 53.1 | 392.7 ± 2.1 | 410.4 ± 24.5 | 386.4 ± 37.3 | 448 ± 30 | 500 ± 61 | 3000 ± 350 | 4700 ± 450 | 4500 ± 400 | 518 ± 42.6 | 487.1 ± 33 | 427 ± 29.4 | 549.2 ± 81.6 | 487.9 ± 89.3 | 472.2 ± 14.8 | 485.3 ± 42.5 | 403.3 ± 5.6 | 500.1 ± 32 | 392.9 ± 22.7 | expression of nod genes (β-galactosidase assay), in words ([2]; concentrations 10 μM or less): showed no activity; expression of nod genes (β-galactosidase assay), in words [2, 5]: strongly induced the expression of nod genes; synergistic effect on β-galactosidase activity [2]: did not result in any synergistic effect
O=c1c(-c2ccc(O)cc2)coc2cc(O)cc(O)c12 [GEN, 5,7,4′-trihydroxyisoflavone] | 1421.7 ± 93.4 | 1320.8 ± 75.99 | 1383.8 ± 98.22 | 1160.7 ± 89.7 | 413.7 ± 7.4 | 3304 ± 333 | 2500 ± 94 | 2300 ± 219 | 1930 ± 74 | 406 ± 15 | 2081.7 ± 148.5 | 1685.1 ± 53.3 | 1286.8 ± 145.5 | 1154.5 ± 121.1 | 430.9 ± 80.6 | 2283.8 ± 57.7 | 2007.6 ± 36.7 | 1821 ± 89.2 | 1121.1 ± 156.9 | 491.9 ± 31.6 | optimum concentration for nod gene induction ([2]; USDA3, β-galactosidase assay): 5 µM
